The Kd is the free concentration of one partner at which half of the binding sites on the other are occupied at equilibrium, for simple one-to-one binding.

This is an account of results in ChEMBL document CHEMBL3991601, “The target landscape of clinical kinase drugs” (Science, 2017).

Activity calls are given as the source filed them.

Test [1] has as its target T1, DNA replication licensing factor MCM4 (Homo sapiens, UniProt P33991).
T1 sequence (P33991 whole entry): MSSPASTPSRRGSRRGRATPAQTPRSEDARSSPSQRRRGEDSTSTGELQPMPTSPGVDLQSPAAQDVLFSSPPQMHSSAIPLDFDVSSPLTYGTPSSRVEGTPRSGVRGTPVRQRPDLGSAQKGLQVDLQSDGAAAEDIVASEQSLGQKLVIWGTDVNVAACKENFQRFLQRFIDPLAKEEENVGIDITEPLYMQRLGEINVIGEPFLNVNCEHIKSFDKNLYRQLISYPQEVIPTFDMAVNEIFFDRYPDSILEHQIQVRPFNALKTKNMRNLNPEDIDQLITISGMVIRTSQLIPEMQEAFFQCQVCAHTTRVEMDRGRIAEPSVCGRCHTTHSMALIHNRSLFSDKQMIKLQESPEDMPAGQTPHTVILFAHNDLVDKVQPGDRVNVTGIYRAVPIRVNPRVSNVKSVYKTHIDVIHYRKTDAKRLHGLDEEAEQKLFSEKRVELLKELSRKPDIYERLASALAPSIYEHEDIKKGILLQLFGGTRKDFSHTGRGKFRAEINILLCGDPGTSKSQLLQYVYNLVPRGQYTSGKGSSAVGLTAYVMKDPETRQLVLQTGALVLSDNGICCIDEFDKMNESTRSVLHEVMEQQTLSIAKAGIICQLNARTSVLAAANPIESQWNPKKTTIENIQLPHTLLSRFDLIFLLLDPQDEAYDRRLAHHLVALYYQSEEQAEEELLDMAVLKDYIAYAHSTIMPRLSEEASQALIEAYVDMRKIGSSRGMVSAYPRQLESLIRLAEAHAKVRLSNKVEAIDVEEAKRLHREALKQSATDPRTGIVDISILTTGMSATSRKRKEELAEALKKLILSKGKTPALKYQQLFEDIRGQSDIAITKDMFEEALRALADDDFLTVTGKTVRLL

Test [2] has as its target Ras-related protein Rab-6A (Homo sapiens, UniProt P20340).
Test [3] concerns the target T2, Signal recognition particle receptor subunit alpha (Homo sapiens, UniProt P08240).
T2 sequence (P08240 whole entry): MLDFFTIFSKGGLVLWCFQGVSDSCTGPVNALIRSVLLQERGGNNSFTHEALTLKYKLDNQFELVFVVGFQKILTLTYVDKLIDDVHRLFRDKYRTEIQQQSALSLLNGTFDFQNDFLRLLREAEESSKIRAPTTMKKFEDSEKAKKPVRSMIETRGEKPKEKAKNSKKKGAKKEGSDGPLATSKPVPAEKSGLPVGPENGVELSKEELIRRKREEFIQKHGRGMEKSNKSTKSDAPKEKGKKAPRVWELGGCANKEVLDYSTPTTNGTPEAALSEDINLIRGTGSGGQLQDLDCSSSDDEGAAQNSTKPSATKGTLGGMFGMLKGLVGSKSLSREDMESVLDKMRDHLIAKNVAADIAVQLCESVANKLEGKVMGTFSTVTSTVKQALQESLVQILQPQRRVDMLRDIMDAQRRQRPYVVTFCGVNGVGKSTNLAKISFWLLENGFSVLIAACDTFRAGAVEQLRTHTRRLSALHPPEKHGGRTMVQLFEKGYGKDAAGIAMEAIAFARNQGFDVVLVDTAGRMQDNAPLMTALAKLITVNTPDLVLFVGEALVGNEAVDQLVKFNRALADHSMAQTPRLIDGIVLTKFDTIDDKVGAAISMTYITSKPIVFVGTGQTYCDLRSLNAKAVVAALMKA

Test [4] addresses Inosine-5'-monophosphate dehydrogenase 2 (Homo sapiens, UniProt P12268).
Test [5] deals with Phosphatidylethanolamine-binding protein 1 (Homo sapiens, UniProt P30086).
Test [6] concerns the target Mitogen-activated protein kinase 11 (Homo sapiens, UniProt Q15759).
The target in a further test is LIM domain kinase 2 (Homo sapiens, UniProt P53671).
In test [7] the target is T3, Adenine phosphoribosyltransferase (Homo sapiens, UniProt P07741).
T3 sequence (P07741 whole entry): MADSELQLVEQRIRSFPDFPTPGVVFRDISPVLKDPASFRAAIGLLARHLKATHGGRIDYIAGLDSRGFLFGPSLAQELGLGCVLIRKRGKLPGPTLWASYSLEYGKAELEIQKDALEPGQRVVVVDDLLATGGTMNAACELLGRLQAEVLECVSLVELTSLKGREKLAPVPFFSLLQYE
Also: in the data inactive means no Kd found up to 30 µM.

Chain of LIM domain kinase 2 (P53671 whole entry, the tested form may be a part): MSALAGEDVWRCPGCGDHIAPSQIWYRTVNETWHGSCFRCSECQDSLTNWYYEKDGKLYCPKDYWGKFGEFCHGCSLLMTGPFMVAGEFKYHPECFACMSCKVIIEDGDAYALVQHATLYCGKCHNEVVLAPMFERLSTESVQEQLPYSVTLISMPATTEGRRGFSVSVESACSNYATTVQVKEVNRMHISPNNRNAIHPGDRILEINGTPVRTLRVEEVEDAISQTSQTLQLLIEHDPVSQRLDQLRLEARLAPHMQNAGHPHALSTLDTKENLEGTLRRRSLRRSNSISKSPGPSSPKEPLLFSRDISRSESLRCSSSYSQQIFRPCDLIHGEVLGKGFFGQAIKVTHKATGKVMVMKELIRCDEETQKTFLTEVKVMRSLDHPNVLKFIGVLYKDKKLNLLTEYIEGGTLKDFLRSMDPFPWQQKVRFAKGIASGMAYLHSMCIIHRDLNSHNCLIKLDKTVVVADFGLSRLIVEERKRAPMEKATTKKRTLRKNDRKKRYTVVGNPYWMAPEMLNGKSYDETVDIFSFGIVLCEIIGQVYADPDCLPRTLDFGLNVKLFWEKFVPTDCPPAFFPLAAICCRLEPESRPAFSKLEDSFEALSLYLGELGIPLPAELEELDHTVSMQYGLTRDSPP
Chain of Mitogen-activated protein kinase 11 (Q15759 whole entry, the tested form may be a part): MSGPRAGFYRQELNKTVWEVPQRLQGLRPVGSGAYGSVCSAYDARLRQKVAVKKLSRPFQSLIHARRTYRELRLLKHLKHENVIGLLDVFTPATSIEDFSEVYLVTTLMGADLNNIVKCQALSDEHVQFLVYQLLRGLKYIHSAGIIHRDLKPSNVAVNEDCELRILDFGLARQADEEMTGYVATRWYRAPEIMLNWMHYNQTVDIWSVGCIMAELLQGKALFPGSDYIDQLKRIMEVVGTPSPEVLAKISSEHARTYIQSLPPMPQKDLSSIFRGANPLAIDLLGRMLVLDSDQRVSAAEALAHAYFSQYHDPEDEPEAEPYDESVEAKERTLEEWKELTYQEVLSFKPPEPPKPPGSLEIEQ
Chain of Phosphatidylethanolamine-binding protein 1 (P30086 whole entry): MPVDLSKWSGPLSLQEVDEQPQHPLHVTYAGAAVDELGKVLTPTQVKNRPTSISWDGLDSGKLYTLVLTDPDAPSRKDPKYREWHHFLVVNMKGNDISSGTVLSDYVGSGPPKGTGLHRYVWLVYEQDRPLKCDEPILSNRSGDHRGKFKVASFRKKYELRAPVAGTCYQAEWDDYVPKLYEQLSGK
Chain of Ras-related protein Rab-6A (P20340 whole entry): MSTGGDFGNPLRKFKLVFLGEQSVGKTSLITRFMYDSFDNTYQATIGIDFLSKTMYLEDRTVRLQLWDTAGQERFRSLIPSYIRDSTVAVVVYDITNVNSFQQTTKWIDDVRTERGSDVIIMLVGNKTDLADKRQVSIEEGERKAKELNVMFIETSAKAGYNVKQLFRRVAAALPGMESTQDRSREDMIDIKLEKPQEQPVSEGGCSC

For the compound `COc1c(OCCCN2CCOCC2)ccc2c1N=C(NC(=O)c1cnc(N)nc1)N1CCN=C21` [COPANLISIB], the Kd in test [1], in test [2], in test [3], in test [4], in test [5] and in test [6] was > 30 µM (inactive) in each case. The Kd (on LIM domain kinase 2; in test [7]) was > 30 µM (inactive) throughout.

As for `COCC(=O)NC/C=C/c1ccc2ncnc(Nc3ccc(Oc4ccc(C)nc4)c(C)c3)c2c1` [CP-724714], the Kd in test [1], in test [2], in test [3], in test [4], in test [5] and in test [6] was > 30 µM (inactive) throughout. In addition, the Kd (on LIM domain kinase 2; in test [7]) was > 30 µM (inactive) each time.

On to `C#Cc1cccc(Nc2ncnc3cc(OC)c(OCCCCCCC(=O)NO)cc23)c1` [CUDC-101], for which the Kd in test [1], in test [2], in test [3], in test [4], in test [5] and in test [6] was > 30 µM (inactive) each time. Further, the Kd (at LIM domain kinase 2; in test [7]) was > 30 µM (inactive) in each case.

In the case of `CC(C)(C)c1nc(-c2cccc(NS(=O)(=O)c3c(F)cccc3F)c2F)c(-c2ccnc(N)n2)s1` [DABRAFENIB], the Kd in test [1], in test [2], in test [3], in test [4], in test [5] and in test [6] was > 30 µM (inactive) throughout. For the same compound, the Kd on LIM domain kinase 2 was 0.082 µM (active); in test [7] it was > 30 µM (inactive).

`Cc1nc2cc(-n3ncc(C(=O)c4cc5ccccc5[nH]4)c3N)ccc2[nH]1` [FGFR INHIBITOR DEBIO 1347]: the Kd in test [1], in test [2], in test [3], in test [4], in test [5] and in test [6] was > 30 µM (inactive) each time. For the same compound, the Kd (at LIM domain kinase 2; in test [7]) was > 30 µM (inactive) in each case.

Turning to `O=C(Nc1nc2cccc(-c3ccc(CN4CCS(=O)(=O)CC4)cc3)n2n1)C1CC1` [FILGOTINIB], the Kd in test [1], in test [2], in test [3], in test [4], in test [5] and in test [6] was > 30 µM (inactive) in each case. Also, the Kd (on LIM domain kinase 2; in test [7]) was > 30 µM (inactive) throughout.

On to `CNC(=O)c1cccc2cc(Oc3ccnc4cc(OCC5(N)CC5)c(OC)cc34)ccc12` [LUCITANIB], for which the Kd in test [1], in test [2], in test [3], in test [4], in test [5] and in test [6] was > 30 µM (inactive) throughout. Moreover, the Kd (at LIM domain kinase 2; in test [7]) was > 30 µM (inactive) throughout.

With `CN(C[C@@H]1COCCO1)S(=O)(=O)Nc1ccc2ccc3ncc(-c4cnn(C)c4)cc3c(=O)c2c1` [MK-2461], the Kd in test [1], in test [2], in test [3], in test [4], in test [5] and in test [6] was > 30 µM (inactive) each time. In addition, the Kd (on LIM domain kinase 2; in test [7]) was > 30 µM (inactive) each time.

Turning to `COc1ncc(-c2ccc3nccc(-c4ccnnc4)c3c2)cc1NS(=O)(=O)c1ccc(F)cc1F` [OMIPALISIB], the Kd in test [1], in test [2], in test [3], in test [4], in test [5] and in test [6] was > 30 µM (inactive) throughout. Further, the Kd (on LIM domain kinase 2; in test [7]) was > 30 µM (inactive) throughout.

With `NC(=O)c1c(OCc2c(F)cc(Br)cc2F)nsc1NC(=O)NCCCCN1CCCC1` [OSI-632], the Kd in test [1], in test [2], in test [3], in test [4], in test [5] and in test [6] was > 30 µM (inactive) throughout. Besides, the Kd (at LIM domain kinase 2; in test [7]) was > 30 µM (inactive) in each case.

As to `CCCCCCCCCCCCCCCCCCOP(=O)([O-])OC1CC[N+](C)(C)CC1` [PERIFOSINE], the Kd in test [1], in test [2], in test [3], in test [4], in test [5] and in test [6] was > 30 µM (inactive) throughout. For the same compound, the Kd (on LIM domain kinase 2; in test [7]) was > 30 µM (inactive) throughout.

For `Cc1cnc(NC(=O)Nc2cc(Br)c(C)cc2OC[C@@H]2CNCCO2)cn1` [RABUSERTIB], the Kd in test [1], in test [2], in test [3], in test [4], in test [5] and in test [6] was > 30 µM (inactive) each time. The Kd (at LIM domain kinase 2; in test [7]) was > 30 µM (inactive) each time.

For the compound `CO[C@H]1C[C@@H]2CC[C@@H](C)[C@@](O)(O2)C(=O)C(=O)N2CCCC[C@H]2C(=O)O[C@H]([C@H](C)C[C@@H]2CC[C@@H](OP(C)(C)=O)[C@H](OC)C2)CC(=O)[C@H](C)/C=C(\C)[C@@H](O)[C@@H](OC)C(=O)[C@H](C)C[C@H](C)/C=C/C=C/C=C/1C` [RIDAFOROLIMUS], the Kd in test [1], in test [2], in test [3], in test [4], in test [5] and in test [6] was > 30 µM (inactive) in each case. Besides, the Kd (on LIM domain kinase 2; in test [7]) was > 30 µM (inactive) each time.

Take `O=c1[nH]ccc2cc(OC3CCNCC3)ccc12` [SAR-407899 FREE BASE]: the Kd in test [1], in test [2], in test [3], in test [4], in test [5] and in test [6] was > 30 µM (inactive) each time. Also, the Kd (on LIM domain kinase 2; in test [7]) was > 30 µM (inactive) in each case.

For the compound `Cn1cc(-c2cnn3c(N)c(Br)c([C@@H]4CCCNC4)nc23)cn1` [SCH-900776], the Kd in test [1], in test [2], in test [3], in test [4], in test [5] and in test [6] was > 30 µM (inactive) each time. Besides, the Kd (on LIM domain kinase 2; in test [7]) was > 30 µM (inactive) each time.
